What all share (assay): Protein kinase selectivity panel
Format in all cases: biochemical
What all share (conditions): 1.0 μM compound, 10 μM ATP

One assay deals with CDK3/cyclinE(h) (Homo sapiens, UniProt Q00526). In a few lines:
(§1)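 Substrate phosphorylation by each kinase is measured in the presence of 1.0 μM compound, using 10 μM ATP under time-linear conditions.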

The target in another assay is T1, SAPK3(h) (Homo sapiens, UniProt P53778).
T1 sequence (P53778 1-367): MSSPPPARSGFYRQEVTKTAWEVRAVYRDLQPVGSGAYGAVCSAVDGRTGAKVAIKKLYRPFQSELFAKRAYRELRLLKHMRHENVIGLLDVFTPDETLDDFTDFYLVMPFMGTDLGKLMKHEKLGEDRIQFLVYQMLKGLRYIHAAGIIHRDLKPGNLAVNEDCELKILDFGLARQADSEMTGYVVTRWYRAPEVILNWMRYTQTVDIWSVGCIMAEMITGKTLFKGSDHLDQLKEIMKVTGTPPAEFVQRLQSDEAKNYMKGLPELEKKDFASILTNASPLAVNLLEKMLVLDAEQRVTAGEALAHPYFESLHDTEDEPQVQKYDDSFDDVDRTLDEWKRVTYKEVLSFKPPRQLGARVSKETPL
In a few lines: as §1

A further assay concerns the target CDK1/cyclinB(h) (Homo sapiens, UniProt P06493). Summed up: as §1
For a further assay, the target named is IGF-1R(h) (Homo sapiens, UniProt P08069). In a few lines:
as §1

The target in another assay is T2, Axl(h) (Homo sapiens, UniProt P30530).
T2 sequence (P30530 26-894): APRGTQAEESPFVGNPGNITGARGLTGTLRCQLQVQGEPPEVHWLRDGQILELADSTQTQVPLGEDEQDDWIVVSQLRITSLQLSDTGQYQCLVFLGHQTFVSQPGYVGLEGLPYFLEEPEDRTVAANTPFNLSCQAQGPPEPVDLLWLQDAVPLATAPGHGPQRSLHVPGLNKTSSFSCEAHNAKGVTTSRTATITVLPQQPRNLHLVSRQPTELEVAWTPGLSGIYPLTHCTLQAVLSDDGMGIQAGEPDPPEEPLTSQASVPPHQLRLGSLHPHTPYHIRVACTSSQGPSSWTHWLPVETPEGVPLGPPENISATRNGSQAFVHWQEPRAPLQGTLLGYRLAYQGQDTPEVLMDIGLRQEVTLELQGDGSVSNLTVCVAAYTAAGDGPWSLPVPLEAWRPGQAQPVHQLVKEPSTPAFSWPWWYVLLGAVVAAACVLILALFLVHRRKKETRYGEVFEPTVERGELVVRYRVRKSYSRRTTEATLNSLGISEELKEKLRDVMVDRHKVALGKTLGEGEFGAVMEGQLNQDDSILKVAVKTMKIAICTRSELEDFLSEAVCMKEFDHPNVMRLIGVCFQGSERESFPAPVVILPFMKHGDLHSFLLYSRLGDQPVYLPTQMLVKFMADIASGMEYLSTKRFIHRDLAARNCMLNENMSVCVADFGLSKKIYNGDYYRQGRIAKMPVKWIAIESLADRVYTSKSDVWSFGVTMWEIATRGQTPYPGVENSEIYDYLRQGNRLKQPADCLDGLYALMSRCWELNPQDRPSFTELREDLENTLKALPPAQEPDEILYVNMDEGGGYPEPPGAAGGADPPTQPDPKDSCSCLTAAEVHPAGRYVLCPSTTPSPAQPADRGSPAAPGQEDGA
Summed up:
as §1

The target of the next assay is T3, MST2(h) (Homo sapiens, UniProt Q13188).
T3 sequence (Q13188 1-491): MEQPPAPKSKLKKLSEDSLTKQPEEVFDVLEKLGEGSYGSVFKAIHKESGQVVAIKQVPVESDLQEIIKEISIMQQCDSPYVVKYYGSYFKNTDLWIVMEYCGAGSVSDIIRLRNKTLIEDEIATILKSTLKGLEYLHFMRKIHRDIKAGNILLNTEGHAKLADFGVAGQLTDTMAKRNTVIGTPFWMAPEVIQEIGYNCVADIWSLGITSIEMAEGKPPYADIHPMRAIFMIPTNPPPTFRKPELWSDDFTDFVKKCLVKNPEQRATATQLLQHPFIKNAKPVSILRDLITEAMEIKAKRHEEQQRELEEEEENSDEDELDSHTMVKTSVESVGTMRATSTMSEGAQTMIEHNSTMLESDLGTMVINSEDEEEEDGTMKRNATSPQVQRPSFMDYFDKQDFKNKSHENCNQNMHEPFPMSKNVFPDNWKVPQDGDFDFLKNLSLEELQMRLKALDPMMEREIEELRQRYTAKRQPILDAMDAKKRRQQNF
In a few lines:
as §1

This note sets out measurements from US7759331B2, “Pyridine-containing macroheterococylic compounds as kinase inhibitors” (Janssen Pharmaceutica NV, priority 2006, dated 2010).

Each structure is given as a SMILES string.

CDK1/cyclinB(h), sequence (P06493 whole entry): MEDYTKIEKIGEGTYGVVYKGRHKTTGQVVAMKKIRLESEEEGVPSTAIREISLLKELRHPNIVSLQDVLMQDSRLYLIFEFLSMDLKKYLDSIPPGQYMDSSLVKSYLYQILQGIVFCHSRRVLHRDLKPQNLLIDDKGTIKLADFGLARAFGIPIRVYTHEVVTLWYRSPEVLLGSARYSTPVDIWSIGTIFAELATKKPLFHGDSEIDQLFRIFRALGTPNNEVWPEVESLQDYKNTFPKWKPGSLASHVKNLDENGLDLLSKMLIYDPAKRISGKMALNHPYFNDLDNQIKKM
CDK1/cyclinB(h), sequence (P14635 whole entry partner): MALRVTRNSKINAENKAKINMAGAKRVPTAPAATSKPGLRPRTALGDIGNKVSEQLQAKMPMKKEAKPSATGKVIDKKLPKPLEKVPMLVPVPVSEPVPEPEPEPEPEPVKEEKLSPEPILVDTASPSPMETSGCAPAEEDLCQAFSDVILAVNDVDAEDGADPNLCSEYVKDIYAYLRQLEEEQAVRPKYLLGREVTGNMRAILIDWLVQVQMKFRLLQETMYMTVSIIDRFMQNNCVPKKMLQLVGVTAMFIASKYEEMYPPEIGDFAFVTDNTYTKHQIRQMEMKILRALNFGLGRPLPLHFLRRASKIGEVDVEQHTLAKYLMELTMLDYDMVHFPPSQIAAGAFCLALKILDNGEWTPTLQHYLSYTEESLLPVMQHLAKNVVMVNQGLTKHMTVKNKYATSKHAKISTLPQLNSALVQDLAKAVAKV
IGF-1R(h), sequence (P08069 31-1367): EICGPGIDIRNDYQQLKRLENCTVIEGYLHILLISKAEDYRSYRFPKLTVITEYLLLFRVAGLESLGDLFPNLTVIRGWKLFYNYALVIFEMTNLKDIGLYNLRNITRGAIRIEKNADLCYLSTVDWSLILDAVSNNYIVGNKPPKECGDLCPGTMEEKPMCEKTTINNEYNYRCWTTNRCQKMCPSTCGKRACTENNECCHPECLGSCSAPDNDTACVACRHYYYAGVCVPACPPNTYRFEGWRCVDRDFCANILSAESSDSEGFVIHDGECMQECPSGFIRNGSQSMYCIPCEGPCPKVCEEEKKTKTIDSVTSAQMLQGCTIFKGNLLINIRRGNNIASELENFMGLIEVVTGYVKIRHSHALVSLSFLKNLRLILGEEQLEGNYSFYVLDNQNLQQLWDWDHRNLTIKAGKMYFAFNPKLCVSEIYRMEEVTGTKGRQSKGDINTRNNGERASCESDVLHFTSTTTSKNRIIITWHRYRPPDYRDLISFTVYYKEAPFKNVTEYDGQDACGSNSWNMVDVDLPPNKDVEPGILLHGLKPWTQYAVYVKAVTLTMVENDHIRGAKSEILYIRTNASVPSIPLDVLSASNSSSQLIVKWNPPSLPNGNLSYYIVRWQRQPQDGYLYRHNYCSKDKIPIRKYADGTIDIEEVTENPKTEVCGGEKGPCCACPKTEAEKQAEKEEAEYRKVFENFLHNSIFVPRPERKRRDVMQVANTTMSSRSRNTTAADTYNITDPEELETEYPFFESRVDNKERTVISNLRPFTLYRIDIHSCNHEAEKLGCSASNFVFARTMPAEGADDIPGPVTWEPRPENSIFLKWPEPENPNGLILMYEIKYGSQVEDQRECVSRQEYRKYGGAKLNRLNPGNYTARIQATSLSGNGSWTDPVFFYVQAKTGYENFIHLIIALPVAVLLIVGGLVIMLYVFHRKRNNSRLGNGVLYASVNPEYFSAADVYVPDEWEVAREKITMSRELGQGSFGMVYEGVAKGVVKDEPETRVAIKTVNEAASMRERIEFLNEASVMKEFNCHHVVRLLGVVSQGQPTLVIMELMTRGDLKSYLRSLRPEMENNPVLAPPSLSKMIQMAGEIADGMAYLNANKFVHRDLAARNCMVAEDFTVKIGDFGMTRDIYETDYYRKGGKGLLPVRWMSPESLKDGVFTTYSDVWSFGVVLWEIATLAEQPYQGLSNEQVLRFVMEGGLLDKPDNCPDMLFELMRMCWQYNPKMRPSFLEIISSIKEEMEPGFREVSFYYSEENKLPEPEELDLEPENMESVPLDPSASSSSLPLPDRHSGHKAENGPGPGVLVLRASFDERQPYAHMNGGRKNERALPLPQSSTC
CDK3/cyclinE(h), sequence (Q00526 whole entry): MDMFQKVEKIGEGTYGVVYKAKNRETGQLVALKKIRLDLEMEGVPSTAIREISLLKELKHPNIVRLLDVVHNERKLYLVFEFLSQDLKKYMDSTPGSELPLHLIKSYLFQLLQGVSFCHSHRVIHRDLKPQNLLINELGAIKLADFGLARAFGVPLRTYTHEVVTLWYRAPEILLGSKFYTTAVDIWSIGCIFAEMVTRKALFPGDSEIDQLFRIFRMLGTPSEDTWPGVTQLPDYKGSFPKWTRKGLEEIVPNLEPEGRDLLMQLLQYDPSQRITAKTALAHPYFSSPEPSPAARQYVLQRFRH
CDK3/cyclinE(h), sequence (P24864 whole entry partner): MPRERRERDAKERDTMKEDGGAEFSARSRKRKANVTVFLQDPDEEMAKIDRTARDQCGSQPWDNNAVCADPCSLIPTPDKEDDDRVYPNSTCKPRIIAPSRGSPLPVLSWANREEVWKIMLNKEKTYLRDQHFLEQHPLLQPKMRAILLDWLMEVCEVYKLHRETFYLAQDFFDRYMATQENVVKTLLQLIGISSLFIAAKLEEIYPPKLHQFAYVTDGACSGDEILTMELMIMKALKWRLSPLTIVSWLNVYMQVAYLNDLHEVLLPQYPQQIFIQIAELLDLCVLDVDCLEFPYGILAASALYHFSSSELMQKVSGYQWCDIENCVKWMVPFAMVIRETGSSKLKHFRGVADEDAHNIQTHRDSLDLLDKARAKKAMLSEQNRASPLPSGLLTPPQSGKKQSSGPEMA

With `CN(C)c1nc2ccc1CCCCn1cc(c3ccccc31)C1=C(C(=O)NC1=O)c1cn(c3ccccc13)CCC2` [Cpd 1, 31-(dimethylamino)-5,15,25,32-tetraazaheptacyclo[28.2.2.1^5,12.1^18,25.0^6,11.0^13,17.0^19,24]hexatriaconta-1(32),6,8,10,12(36),13(17),18(35),19,21,23,30,33-dodecaene-14,16-dione], on CDK3/cyclinE(h), the “Activity at Protein Kinase Assays (% of control), CDK3/cyclinE(h)” value (“Activity … (% of control), CDK3/cyclinE(h)” below) is given as 59 % of control. The “Activity at Protein Kinase Assays (% of control), SAPK3(h)” value (“Activity … (% of control), SAPK3(h)” below) at SAPK3(h) is 78 % of control. Besides, the “Activity at Protein Kinase Assays (% of control), CDK1/cyclinB(h)” value (“Activity … (% of control), CDK1/cyclinB(h)” for short) at CDK1/cyclinB(h) is listed as 78 % of control. On IGF-1R(h), the “Activity at Protein Kinase Assays (% of control), IGF-1R(h)” value (“Activity … (% of control), IGF-1R(h)” for short) is on record as 84 % of control. For the same molecule, on Axl(h), the “Activity at Protein Kinase Assays (% of control), Axl(h)” value (shortened to “Activity … (% of control), Axl(h)”) is listed as 97 % of control. Moreover, the “Activity at Protein Kinase Assays (% of control), MST2(h)” value (“Activity … (% of control), MST2(h)” for short) on MST2(h) is recorded as 103 % of control.

For `O=C1NC(=O)C2=C1c1cn(c3ccccc13)CCCc1ccc(c(N3CCCC3)n1)CCCn1cc2c2ccccc21` [Cpd 7, 31-pyrrolidin-1-yl-5,15,25,30-tetraazaheptacyclo[27.2.2.1^5,12.1^18,25.0^6,11.0^13,17.0^19,24]pentatriaconta-1(31),6,8,10,12(35),13(17),18(34),19,21,23,29,32-dodecaene-14,16-dione], the “Activity … (% of control), CDK3/cyclinE(h)” value at CDK3/cyclinE(h) is listed as 106 % of control. The “Activity … (% of control), SAPK3(h)” value at SAPK3(h) is given as 114 % of control. Further, the “Activity … (% of control), CDK1/cyclinB(h)” value on CDK1/cyclinB(h) is given as 98 % of control. For the same molecule, the “Activity … (% of control), IGF-1R(h)” value at IGF-1R(h) is 106 % of control. Moreover, the “Activity … (% of control), Axl(h)” value on Axl(h) is listed as 100 % of control. Moreover, the “Activity … (% of control), MST2(h)” value at MST2(h) is reported as 86 % of control.

Regarding `O=C1NC(=O)C2=C1c1cn(c3ccccc13)CCCc1cc(nc(N3CCCC3)c1)CCCn1cc2c2ccccc21` [Cpd 6, 20-pyrrolidin-1-yl-4,14,19,26-tetraazaheptacyclo[24.6.1.1^7,14.1^18,22.0^2,6.0^8,13.0^27,32]pentatriaconta-1(33),2(6),7(35),8,10,12,18(34),19,21,27,29,31-dodecaene-3,5-dione], at CDK3/cyclinE(h), the “Activity … (% of control), CDK3/cyclinE(h)” value is recorded as 86 % of control. Also, the “Activity … (% of control), SAPK3(h)” value at SAPK3(h) is given as 103 % of control. For the same molecule, the “Activity … (% of control), CDK1/cyclinB(h)” value on CDK1/cyclinB(h) is on record as 80 % of control. The “Activity … (% of control), IGF-1R(h)” value at IGF-1R(h) was 42 % of control. Further, the “Activity … (% of control), Axl(h)” value at Axl(h) was 106 % of control. Further, at MST2(h), the “Activity … (% of control), MST2(h)” value is recorded as 100 % of control.

Consider `CN(C)c1cc2cc(n1)CCCn1cc(c3ccccc31)C1=C(C(=O)NC1=O)c1cn(c3ccccc13)CCC2` [Cpd 2, 20-(dimethylamino)-4,14,19,26-tetraazaheptacyclo[24.6.1.1^7,14.1^18,22.0^2,6.0^8,13.0^27,32]pentatriaconta-1(33),2(6),7(35),8,10,12,18(34),19,21,27,29,31-dodecaene-3,5-dione], for which the “Activity … (% of control), CDK3/cyclinE(h)” value on CDK3/cyclinE(h) is on record as 89 % of control. Besides, the “Activity … (% of control), SAPK3(h)” value at SAPK3(h) is on record as 115 % of control. Moreover, the “Activity … (% of control), CDK1/cyclinB(h)” value on CDK1/cyclinB(h) is 98 % of control. The “Activity … (% of control), IGF-1R(h)” value at IGF-1R(h) is reported as 37 % of control. The “Activity … (% of control), Axl(h)” value at Axl(h) was 104 % of control. In addition, the “Activity … (% of control), MST2(h)” value at MST2(h) is given as 84 % of control.
